# Columns and labels:
# [1] = system: Rat whole blood (RWB); experiment: LTB4 secretion assay in RWB (rat whole blood); type: cell-based; details: Rattus norvegicus
# How it was run: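 LTB4 release was measured by EIA in supernatants of pooled, sodium heparin rat blood (male Sprague Dawley, 6-9 weeks) diluted 1:1 with RPMI. Compounds (2.5 nM to 50 uM) were added 15 min before A23187 (10 uM final), with 10 min stimulation at 37 °C before ice-cold PBS quench.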
# [2] = system: Rat basophilic leukemia (RBL) cells; experiment: LTB4 secretion assay in RBL (rat basophilic leukemia cells); type: cell-based; details: Rattus norvegicus, RBL
# How it was run: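 LTB4 released into supernatant was measured by EIA after 10 min at 37 °C with arachidonic acid (2.5 uM final) and calcium ionophore A23187 (5 uM final). Before stimulation, cells plated 2×10^4/well overnight received compound doses (5 nM to 100 uM) for 15 min in 0.5% FBS medium.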
# [3] = biological target: T1, human 5-LOX (Homo sapiens, UniProt P09917); experiment: 5-LOX enzyme activity, fluorescence method (5-HPETE, H2DCFDA); type: biochemical; details: read-out: 5-LO (IC50)
# T1 construct: purchased Cayman 60402; host or cells: insect cells (lysate)
# T1 sequence (P09917 1-674): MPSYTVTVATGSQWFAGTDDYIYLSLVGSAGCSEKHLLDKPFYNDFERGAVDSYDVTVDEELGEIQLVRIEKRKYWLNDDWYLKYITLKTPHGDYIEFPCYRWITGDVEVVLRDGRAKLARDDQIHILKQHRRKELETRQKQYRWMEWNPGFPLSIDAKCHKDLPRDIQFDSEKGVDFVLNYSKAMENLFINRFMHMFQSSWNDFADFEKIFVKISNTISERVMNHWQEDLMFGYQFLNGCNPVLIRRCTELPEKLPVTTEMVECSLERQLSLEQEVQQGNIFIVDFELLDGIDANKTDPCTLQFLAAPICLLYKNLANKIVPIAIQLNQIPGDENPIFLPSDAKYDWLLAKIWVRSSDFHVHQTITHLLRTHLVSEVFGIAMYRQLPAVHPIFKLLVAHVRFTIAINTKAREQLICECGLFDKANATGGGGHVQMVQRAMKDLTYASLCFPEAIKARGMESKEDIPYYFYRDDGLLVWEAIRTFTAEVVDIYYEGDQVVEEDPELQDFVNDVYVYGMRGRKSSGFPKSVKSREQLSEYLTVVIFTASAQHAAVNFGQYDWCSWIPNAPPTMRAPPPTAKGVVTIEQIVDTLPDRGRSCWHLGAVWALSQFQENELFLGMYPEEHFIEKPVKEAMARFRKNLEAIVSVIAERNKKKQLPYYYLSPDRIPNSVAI
# How it was run: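 Fluorescence-based read-out, run entirely at room temperature. Enzyme mixture was exposed to a dose range of compound from 0.5 nM to 10 uM for 5 min before ATP and arachidonic acid were added to final levels of 100 uM and 3 uM.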
SMILES,EC50 [1] [µM],EC50 [2] [µM],IC50 [3] [µM]
CCC(Nc1nc2ccc(Nc3cc(C(F)(F)F)n(C)n3)cc2n1C)c1ccc(Oc2ncc(Cl)cn2)cc1 (stereo not drawn) [Compound 505],< 10,< 10,< 1
Cn1c(NCc2ccc(Oc3ccc(C#N)cn3)cc2)nc2ccc(NC3COC3)cc21 [Compound 351],< 10,10 to 20,< 1
Nc1ccc2[nH]c(NCc3ccc(OC(F)(F)F)cc3)nc2c1 [Compound 79],< 10,< 10,< 1
Cn1c(NCc2ccc(Oc3ccc(Cl)cn3)cc2)nc2ccc(NC(C)(C)C(N)=O)cc21 [Compound 306],< 10,< 10,< 1
Cn1c(NCc2ccc(Oc3ccc(C#N)cn3)cc2)nc2ccc(N)cc21 [Compound 350],< 10,< 10,< 1
Cc1cc(Nc2cnc3nc(NCc4ccc(Oc5ncc(Cl)cn5)cc4)n(C)c3c2)n[nH]1 [Compound 497],> 20,> 20,1 to 10
Cn1c(NCc2ccc(Oc3ccc(C(F)(F)F)cn3)cc2)nc2c(F)cc(NC3COC3)cc21 [Compound 552],10 to 20,< 10,< 1
Nc1ccc2nc(NCc3coc(-c4ccc(Cl)cc4)n3)[nH]c2c1 [Compound 175],> 20,< 10,< 1
Cn1c(NCc2ccc(Oc3nc4ccc(N)cc4n3C)cc2)nc2ccc(NC3COC3)cc21 [Compound 409],> 20,> 20,< 1
CCC(Nc1nc2ccc(Nc3cc(C(F)F)[nH]n3)cc2n1C)c1ccc(Oc2ncc(Cl)cn2)cc1 (stereo not drawn) [Compound 535],< 10,< 10,< 1
Nc1ccc2nc(NCc3ccc(C(=O)c4ccccc4)cc3)[nH]c2c1 [Compound 106],< 10,< 10,< 1
Cc1cc(Oc2ccc(Cl)cn2)ccc1CNc1nc2ccc(NC3COC3)cc2n1C [Compound 291],10 to 20,< 10,< 1
CN(C)c1nc2cc(N3CCC(Oc4ccncc4)C3)ccc2[nH]1 (stereo not drawn) [Compound 202],> 20,< 10,< 1
Nc1ccc2[nH]c(NCc3ccc(Cl)cc3F)nc2c1 [Compound 30],< 10,< 10,< 1
Cc1cc(Nc2ccc3nc(NCc4ccc(Oc5ncc(C(F)(F)F)cn5)cc4)n(C)c3c2)n[nH]1 [Compound 479],< 10,< 10,< 1
Nc1ccc2[nH]c(NCc3cccc(Oc4ccc(Cl)cc4)c3)nc2c1 [Compound 101],< 10,< 10,< 1
Cn1c(NCc2ccc(Oc3ccc(Cl)cn3)c(F)c2)nc2ccc(NC3COC3)cc21 [Compound 268],< 10,< 10,< 1
COCCn1c(NCc2ccc(Oc3ccc(Cl)cn3)cc2)nc2ccc(NC3COC3)cc21 [Compound 269],< 10,< 10,< 1
Cn1c(NCCOc2ccc(OC(F)(F)F)cc2)nc2ccc(N)cc21 [Compound 52],< 10,< 10,< 1
CN(C)c1nc2ccc(N3CCC(C(=O)c4ccc(OC(F)(F)F)cc4)C3)cc2[nH]1 (stereo not drawn) [Compound 190],> 20,< 10,< 1
Cn1c(NCc2ccc(Oc3ncc(C#N)cn3)cc2)nc2ccc(N)cc21 [Compound 367],< 10,< 10,< 1
Cn1c(NCCOc2ccc(OC(F)(F)F)c(Cl)c2)nc2ccc(N)cc21 [Compound 58],> 20,< 10,< 1
Cn1c(NCc2ccc(Oc3ccc(Cl)cn3)cc2)nc2ccc(Nc3ccccn3)cc21 [Compound 448],< 10,< 10,1 to 10
CCC(Nc1ccc2[nH]c(N(C)C)nc2c1)c1ccc(Oc2ccc(OC(F)(F)F)cc2)cc1 (stereo not drawn) [Compound 132],> 20,< 10,< 1

SMILES,EC50 [1] [µM],EC50 [2] [µM],IC50 [3] [µM]
Cc1cc(Nc2ccc3nc(NCc4ccc(Oc5ncc(Cl)cn5)cc4)n(C)c3c2)nn1C [Compound 465],< 10,< 10,< 1
Cn1c(NCc2cc(Cl)c(Oc3ncc(Cl)cn3)cc2Cl)nc2ccc(NC3COC3)cc21 [Compound 433],< 10,10 to 20,< 1
Nc1ccc2nc(N)n(Cc3ccc(Oc4ccc(OC(F)(F)F)cc4)cc3)c2c1 [Compound 245],10 to 20,< 10,> 10
Cc1cc(Nc2ccc3nc(NCc4ccc(Oc5nccc(Cl)n5)cc4)n(C)c3c2)n[nH]1 [Compound 489],< 10,< 10,< 1
Cn1nc(C(F)F)cc1Nc1ccc2nc(NCc3ccc(Oc4ncc(Cl)cn4)cc3)n(C)c2c1 [Compound 533],< 10,< 10,< 1
CCn1c(NCc2ccc(Oc3ncc(C(F)(F)F)cn3)cc2F)nc2ccc(NC3COC3)cc21 [Compound 542],< 10,< 10,< 1
CC(C)(C)Nc1nc2ccc(N)cc2n1CC(=O)Nc1ccc(OC(F)(F)F)cc1 [Compound 67],> 20,< 10,< 1
Nc1nc2ccc(NC3COC3)cc2n1Cc1ccc(Oc2ccc(Cl)cc2)cc1 [Compound 231],< 10,< 10,< 1
Cn1c(NCc2ccc(Oc3ccc(OC(F)(F)F)cn3)cc2)nc2ccc(NC3COC3)cc21 [Compound 378],< 10,< 10,< 1
CN(C)c1nc2ccc(NCc3ccc(C4(C#N)CCOCC4)cc3)cc2[nH]1 [Compound 241],> 20,< 10,< 1
CN(C)c1nc2cc(NCc3ccc(Oc4ccc(OC(F)(F)F)cc4)cc3)ccc2[nH]1 [Compound 126],> 20,< 10,< 1
CCn1c(NCc2ccc(Oc3ncc(Cl)cn3)cc2)nc2ccc(Nc3cc(C(C)(C)C)[nH]n3)cc21 [Compound 509],< 10,< 10,< 1
Cn1nc(Nc2ccc3nc(NCc4ccc(Oc5ncc(Cl)cn5)cc4)n(C)c3c2)cc1C(F)(F)F [Compound 468],< 10,< 10,< 1
Cn1c(NCc2ccc(Oc3ncccn3)cc2)nc2ccc(N)cc21 [Compound 344],10 to 20,> 20,< 1
c1ccc(Oc2ccc(CNc3nc4cc(NC5CCCC5)ccc4[nH]3)cc2)cc1 [Compound 97],< 10,< 10,< 1
Cn1nc(Nc2ccc3nc(NCc4ccc(Oc5ncc(C(F)(F)F)cn5)cc4)n(C)c3c2)cc1C(F)(F)F [Compound 519],< 10,< 10,> 10
Cn1c(NCc2ccc(Oc3ccc(Cl)cn3)cn2)nc2ccc(NC3COC3)cc21 [Compound 300],10 to 20,< 10,< 1
Nc1ccc2nc(N)n(Cc3ccc(Oc4ccc(C(F)(F)F)cn4)cc3)c2c1 [Compound 243],< 10,< 10,< 1
CNc1nc2ccc(N)cc2n1Cc1ccc(Oc2ccc(Cl)cc2)cc1 [Compound 219],> 20,< 10,< 1
Cc1cc(Nc2ccc3nc(NCc4ccc(Oc5ncc(Cl)cn5)cc4)[nH]c3c2)n[nH]1 [Compound 470],< 10,< 10,< 1
Cn1c(NCc2ccc(Oc3cnc(N)nc3)cc2)nc2ccc(N)cc21 [Compound 360],< 10,10 to 20,< 1
CN(C)c1nc2cc(NCc3ccc(-c4ccnn4C)cc3)ccc2[nH]1 [Compound 196],10 to 20,< 10,< 1
FC(F)(F)CCNc1nc2ccc(NC3COC3)cc2n1Cc1ccc(Oc2ccc(Cl)cc2)cc1 [Compound 279],< 10,< 10,1 to 10
CCn1c(NCc2ccc(Oc3cnc(C(F)(F)F)cn3)cc2)nc2ccc(Nc3cc(C(F)(F)F)n(C)n3)cc21 [Compound 523],10 to 20,< 10,> 10

# Reference: patent US11447486B2, “2-amino-benzimidazole derivatives and their use as 5-lipoxygenase and/or prostaglandin E synthase inhibitors” (INSTITUT PASTEUR KOREA, priority 2014, dated 2022)
